Experimental data: patent US9423343B2, “Membrane potential change detection device and membrane potential change detection method” (HAMAMATSU PHOTONICS K.K., priority 2010, dated 2016)

Tested on: CHO cells
Test: Reflection interference measurement of membrane potential change (depolarization) after KCl dispensation, Measurement Example 1
Format: cell-based, Chinese hamster
Conditions: for change rate of average luminosity at the peak: peak slightly over five minutes, FIG. 11
Source text: The functions and operation of the processing unit 20 will be described further referring to the flowchart of FIG. 7. First, the reflection interference image of adhesion faces of cells 101 is obtained by the reflection interference detection camera 110 (step S101, corresponding to “reflection interference imaging step” in the scope of claims). The amplitude of interfering light differs according to the distance of each cell 101 adhering onto the substrate as the bottom surface of the vessel 102 from the substrate as the bottom surface of the vessel 102, and the reflection interference image is taken as a contrast of bright and dark patterns. Next, correction is made for shading of reflected light in the field of the reflection interference image. In addition, an offset correction for background part is carried out in each time unit, so as to prevent temporal variation in value of the background without the cells 101. Through these image arithmetic corrections, we can obtain the reflection interference image with little spatial and temporal variation.
The reflection interference detection camera 110 acquires reflection interference images, for example, at intervals of one second. The intervals of acquisition of reflection interference images are preferably suitably controlled according to a rate of change of membrane potential of the cells 101. After a fixed time from a start of acquisition of image by the reflection interference detection camera 110, a chemical dispensing operation of the dispenser 117 is performed to dispense an intended chemical in an intended concentration to the solution in which the cells 101 are immersed.
The analysis unit 202 calculates a parameter about adhesion between each cell 101 and the transparent member 102a using the reflection interference images obtained intermittently in this manner (step S102, corresponding to “analysis step” in the scope of claims). In the present embodiment, the analysis unit calculates a “change rate of average luminosity” as the parameter to evaluate the change of membrane potential of cell 101 (corresponding to “parameter about adhesion” in the scope of claims).
When the image reception unit 201 receives the reflection interference images sequentially output from the reflection interference detection camera 110, the analysis unit 202 calculates the average luminosity I(t) of the measurement region in each of the reflection interference images and calculates a change rate dI relative to an average luminosity of the measurement region acquired in advance before chemical dispensation (which will be referred to hereinafter as average luminosity I(base) as a base”) (step S103, corresponding to “analysis step” in the scope of claims). […] The change rate dI is calculated by the formula below. […]
The analysis unit 202 detects a change of membrane potential of the cells 101 on the basis of the change rate dI calculated by the above formula. Namely, when a predetermined change rate dI is calculated, the analysis unit 202 makes such a valuation that there is some change detected in membrane potential in the cells 101. The analysis unit 202 may output a plot along time axis of the change rate dI (%) relative to the average luminosity before chemical dispensation calculated by the above formula, e.g., graphs as shown in (A) of FIGS. 8 and (B) of FIG. 8. […]

In the case of `[Cl-].[K+]` [KCl, potassium chloride], the “change rate of average luminosity at the peak” value (“change rate” below) (KCl concentration 6.25 mM) is reported as “+8%”, the “change rate” value (KCl concentration 25 mM) is reported as “+35%” and the “change rate” value (KCl concentration 50 mM) is reported as “+55%”. The “change rate” value (KCl concentration 100 mM) was “+95%” and the “change of reflection interference image after dispensation” value (image at 5 minutes after dispensation, FIG. 9) was “the CHO cells departed from the transparent member on which the cells were laid, to make the reflection interference image brighter”.
